Measurements taken from patent US7282576B2, “Coactivators in the diagnosis and treatment of breast cancer” (Georgetown University, priority 2001, dated 2007).

Experiments:
[1] = system: human FGF-BP gene promoter; test: EGF activation of FGF-BP gene promoter luciferase reporter in ME-180 cells; format: cell-based; details: EGF 5 ng/ml, 18 h
Description: ME-180 cells were plated at a density of 5×10^5 cells per well and cultured for 24 h in IMEM supplemented with 5% dextran-charcoal-treated FBS. They were then incubated for 3 h in IMEM supplemented with Lipofectamine Plus and expression and reporter plasmids. Cells were washed and then incubated in IMEM for an additional 3 h before incubation for 18 h with EGF (5 ng/ml) in serum-free IMEM and subsequent lysis. Because of high background induction of pRL-CMV expression by EGF, firefly luciferase activity was normalized by protein concentration as described previously (32).
Cells were transfected with 3 μg of either pcDNA3, pcDNA3-AIB1, or pcDNA3-AIB1-Δ3, together with a luciferase reporter plasmid containing the human FGF-BP gene promoter (1 μg) (32) (FIG. 6). After incubation of cells for 18 h in the absence or presence of EGF (5 ng/ml) in serum-free medium, cell extracts were prepared and assayed for luciferase activity. Activity was normalized by protein concentration, and the normalized activity values were then expressed relative to that of cells transfected with pcDNA3 and not exposed to EGF. Data are means±SEM of values from three independent experiments, each performed in triplicate. *P<0.01 versus the corresponding value for control cells.

[2] = target: T1, human estrogen receptor α (Homo sapiens, UniProt P03372); test: Transient transfection ERE-luciferase reporter assay in CHO cells; format: cell-based, hamster
T1 construct: expressed in transfected cells; host or cells: CHO cells
T1 sequence (P03372 1-595): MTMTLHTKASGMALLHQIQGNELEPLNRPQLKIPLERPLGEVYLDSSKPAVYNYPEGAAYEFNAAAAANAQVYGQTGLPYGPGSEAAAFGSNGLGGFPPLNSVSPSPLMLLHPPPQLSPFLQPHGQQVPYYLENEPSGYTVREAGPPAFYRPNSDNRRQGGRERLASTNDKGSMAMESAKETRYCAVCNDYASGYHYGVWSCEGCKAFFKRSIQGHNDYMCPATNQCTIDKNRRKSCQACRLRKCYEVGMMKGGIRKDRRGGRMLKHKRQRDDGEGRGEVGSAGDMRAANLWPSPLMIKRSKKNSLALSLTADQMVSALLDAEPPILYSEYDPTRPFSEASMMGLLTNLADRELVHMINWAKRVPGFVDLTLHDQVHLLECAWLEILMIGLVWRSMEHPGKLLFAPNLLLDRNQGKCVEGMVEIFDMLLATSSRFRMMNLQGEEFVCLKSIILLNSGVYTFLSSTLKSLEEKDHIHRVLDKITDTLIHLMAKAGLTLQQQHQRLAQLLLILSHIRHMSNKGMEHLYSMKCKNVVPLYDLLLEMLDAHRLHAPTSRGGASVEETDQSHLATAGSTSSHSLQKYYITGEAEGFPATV
Description: To verify that the Δ3-AIB1 mRNA was translated in vivo, transient transfection of CHO cells (FIG. 2; see FIG. 4a) or COS-1 cells (see FIG. 5a) with the Δ3-AIB1 cDNA was performed. COS-1 and CHO cells were plated at densities of 2×10^5 and 5×10^5 cells per well, respectively, in six-well plates, and were cultured for 24 h at 37° C. under 5% CO2 in IMEM or Ham's F-12, respectively, supplemented with 5% FBS that had been treated with dextran-coated charcoal. The medium was then replaced with IMEM containing Lipofectamine Plus (Gibco BRL) and expression and reporter plasmids as indicated. After incubation for 3 h, the medium was replaced with IMEM (COS-1 cells) or Ham's F-12 (CHO cells), each containing 5% dextran-coated charcoal-treated FBS and nuclear receptor ligands. Cells were incubated for 24 h and then disrupted in passive lysis buffer (Promega). Portions (20 μl) of the resulting cell extract were assayed for both firefly and renilla luciferase activities with the Dual-Luciferase reporter assay system (Promega).
The effect of the deletion of the bHLH and PAS A domains was next examined in Δ3-AIB1 on protein function. AIB1 acts as a coactivator for several nuclear receptors, including those for estrogen and progesterone, which are important in breast carcinogenesis. […]

Row | Substance | increase in FGF-BP promoter reporter activity ([1]; ME-180 control cells with empty expression vector) [fold] | factor of potentiation of the estrogen response at approximately equal amounts of recombinant protein ([2]; 0.3 μg AIB1 vector vs 3 μg Δ3-AIB1 vector) | increase in estrogen-induced luciferase activity ([2]; 3 μg expression vector, 10 nM estradiol-17β, 24 h) [fold] | increase of EGF induction of FGF-BP promoter reporter activity ([1]; ME-180 cells, 3 μg vector)
1 | EGF: epidermal growth factor [reference compound] | 2.5 | – | – | –
2 | AIB1: 156-kDa full-length nuclear receptor coactivator amplified in breast cancer 1, expressed from pcDNA3-AIB1 | – | 1.1 | 1.4 | increased slightly
